From the NIST ThermoML archive (doi:10.1021/je050513r) come the findings set out here.

Numbers after ± are expanded uncertainties.

The nature of the data set: refractive index (Na D-line) (dimensionless). Particulars: 293.1 K; 101.33 kPa; Liquid; Standard Abbe refractometry.
For `CN1CCCC1=O` [N-methylpyrrolidone], the refractive index was 1.4686 ± 0.0007.

Consider `Cc1cc(C)cc(C)c1` [1,3,5-trimethylbenzene], for which the refractive index is given as 1.4992 ± 0.0007.

Take `CCCCCCCCCCCCCCCC` [hexadecane]: the refractive index stood at 1.4344 ± 0.0007.

Broadly, the refractive index is a measure of how strongly the sample bends light.
